Experimental data published in paper PMC9101087, “A Sensitive LC-MS/MS Method for the Simultaneous Determination of Two Thia-Analogous Indirubin N-Glycosides and Indirubin-3′-Monoxime in Plasma and Cell Culture Medium” (Molecules, 2022).
pIC50: −log10 of the molar value.

How the values were obtained:
[1] = test system: A431 (skin squamous cell carcinoma); assay: WST-1 cell viability assay, 48-h incubation; format: cell-based, human; settings: A431, WST-1, 48 h
Protocol: (§1) To test the biological activity of the thia-analogous indirubin N-glycosides that are the focus of the present work, the effects of KD87 and KD85 and their non-glycosylated parent compound KD88 on the viability of various tumor cell lines were initially investigated. The corresponding analyses were performed using the cell lines A375 (melanoma), A431 (skin squamous cell carcinoma), A549 (non-small cell lung carcinoma), U251MG (glioblastoma), and U138MG (glioblastoma).
(§2) Figure 2 Effect of increasing concentrations of KD87 (A), KD85 (B), and KD88 (C) on viability of various cancer cells. A375 (melanoma; black columns), A431 (skin squamous cell carcinoma; dark grey columns), A549 (non-small cell lung carcinoma; grey columns), U251MG (glioblastoma; light grey columns), or U138MG (glioblastoma; white columns) were incubated for 48 h with the appropriate compounds or vehicle followed by determination of cell viability by WST-1 assay. Percent control represents comparison with vehicle-treated cells (100%) in the absence of test substance. Values are mean ± standard error of the mean (SEM) of n = 15 in all panels, except n = 14 for A375 and A431 cells in panel B and n = 14–15 for A375 cells in panel C, from four (A375, A431) or five (A549, U251MG, U138MG) independent experiments. * p ≤ 0.05, ** p ≤ 0.01, *** p ≤ 0.001, **** p ≤ 0.0001 vs. vehicle control; one-way ANOVA with Dunnett’s post hoc test.
(§3) The human melanoma cell line A375 (#300110; RRID:CVCL_0132) as well as the human skin epidermoid carcinoma cell line A431 (#300112; RRID:CVCL_0037) were purchased from CLS Cell Lines Service GmbH (Eppelheim, Germany). The human glioblastoma cell line U251MG (#09063001; RRID:CVCL_0021) was from Sigma-Aldrich Corporation. The human glioblastoma cell line U138MG (#ACC 291; RRID: CVCL_0020) and the human lung carcinoma cell line A549 (#ACC 107, RRID:CVCL_0023) were purchased from DSMZ (Deutsche Sammlung von Mikroorganismen und Zellkulturen GmbH, Braunschweig, Germany).
(§4) Cells were cultured in high-glucose DMEM (with GlutaMAX™-I: A375, A431; with UltraGlutamine^TM I: A549, U251MG, U138MG) supplemented with 10% heat-inactivated FBS, 100 U/mL penicillin, and 100 μg/mL streptomycin and grown in a humidified incubator at 37 °C and 5% CO2. For viability analyses, cells were seeded in 96-well plates at a density of 5000 cells per well in DMEM containing 10% heat-inactivated FBS and cultured for 24 h. All cell experiments with the specific substances were performed in serum-free DMEM supplemented with 100 U/mL penicillin and 100 μg/mL streptomycin, applied after washing the cells with DPBS. The test substances were dissolved in DMSO. The final concentration of DMSO in the incubation media of test substance- and vehicle-treated cells was 1% (v/v).
(§5) After completion of the 48-h incubation, WST-1 reagent (Sigma, Taufkirchen, Germany) was added to the cells to achieve a final dilution of 1:10, and the cells were incubated for an additional 20 min before absorbance was measured at 450 nm, reference wavelength […], using a microplate reader.

[2] = test system: A549 (non-small cell lung carcinoma); assay: WST-1 cell viability assay, 48-h incubation; format: cell-based, human; settings: A549, WST-1, 48 h
Protocol: as §1, §2, §3, §4, §5

U251MG (glioblastoma) = assay: WST-1 cell viability assay, 48-h incubation; format: cell-based, human; settings: WST-1, 48 h
Protocol: as §1, §2, §3, §4, §5

U138MG (glioblastoma) = assay: WST-1 cell viability assay, 48-h incubation; format: cell-based, human; settings: WST-1, 48 h
Protocol: as §1, §2, §3, §4, §5

A375 (melanoma) = assay: WST-1 cell viability assay, 48-h incubation; format: cell-based, human; settings: A375, WST-1, 48 h
Protocol: as §1, §2, §3, §4, §5

[3] = Storage stability in human plasma, LC-MS/MS after plasma precipitation; format: in vitro ADME; settings: long-term freezing
[4] = Storage stability in DMEM, LC-MS/MS after DMEM extraction; format: physicochemical; settings: for Stability 4 °C / Stability AS (autosampler) / Stability −20 °C / Stability BT (benchtop): 24 h; for Stability FT (freeze-thaw): freeze-thaw cycles; for Stability −80 °C 91 d: long-term freezing; for Stability BT (benchtop): room temperature
Protocol: (§6) To assess stability, low and high concentrations of all analytes were subjected to different storage conditions. […] For determination of long-term stability, samples were stored in either plasma or DMEM at –80 °C for 90 and 91 days, respectively. To measure short-term stability, samples were stored at room temperature, in an autosampler, at 4 °C, and at –20 °C for 24 h. In addition, freeze-thaw cycles were performed according to FDA guidance for the standard solutions. For comparison, at least three freshly prepared samples were prepared for each concentration level. With the exception of autosampler stability, the internal standard was always added to all samples before sample processing was started.
Regarding the medium, validation procedures were performed with high-glucose DMEM supplemented with 100 U/mL penicillin and 100 μg/mL streptomycin, but not with FBS. With the exception of selectivity, where both media (GlutaMAX™-I or UltraGlutamine^TM I supplement) were tested, only Gibco™ DMEM with GlutaMAX™-I was used for all other analytical procedures.
(§7) Liquid-liquid extraction was performed identically for plasma and DMEM samples. After addition of the 1.0 µM internal standard, 50 µL of 0.8 M alkaline carbonate buffer was added. The extraction was performed once with 890 µL ethyl acetate. Tubes were then shaken for 10 min at 1400 rpm using a Thermomixer 5436 (Eppendorf AG, Hamburg, Germany) followed by centrifugation for 5 min at 14,000 rpm using a Centrifuge 5415 C (Eppendorf AG, Hamburg, Germany). Subsequently, 850 µL of the supernatant was transferred to a new tube and evaporated to dryness for 35 min at 35 °C (8 min heating time) using a SpeedVac SPD130DLX (Thermo Fisher Scientific, Asheville, NC, USA). Reconstitution was performed with 200 µL of a acetonitrile/water/H2SO4 [3/0.5/0.5] mixture, shaken at 1400 rpm for 5 min, and centrifuged again at 14,000 rpm for 5 min. Finally, 155 µL of the sample was transferred to an LC vial and analyzed.
(§8) To assess stability, low and high concentrations of all analytes were exposed to different storage conditions. To determine long-term stability, samples were stored in either plasma or DMEM at −80 °C for 90 and 91 days, respectively. To determine short-term stability, samples were stored for 24 h on the bench at room temperature, in the autosampler, at 4 °C, and at −20 °C. In addition, freeze-thaw cycles were performed for the standard solutions according to FDA guidance. At least three freshly prepared samples per concentration level were prepared for comparison. With the exception of the stability test in the autosampler, the internal standard was always added to all samples before sample processing was started. However, to avoid concentration fluctuations due to possible degradation of the analytes, stock solutions were prepared twice a week and stored at −20 °C. Each storage condition was examined in the dark. For all conditions studied, n = 3–6 replicates were prepared.

[5] = Storage stability in human plasma, LC-MS/MS after plasma extraction; format: in vitro ADME; settings: for Stability 4 °C / Stability AS (autosampler) / Stability −20 °C / Stability BT (benchtop): 24 h; for Stability FT (freeze-thaw): freeze-thaw cycles; for Stability −80 °C 90 d: long-term freezing; for Stability BT (benchtop): room temperature
Protocol: as §6, §7, §8

[6] = Storage stability in human plasma, LC-MS/MS after plasma precipitation; format: in vitro ADME; settings: for Stability 4 °C / Stability AS (autosampler) / Stability −20 °C / Stability BT (benchtop): 24 h; for Stability FT (freeze-thaw): freeze-thaw cycles; for Stability BT (benchtop): room temperature
Protocol: as §6
After mixing the 1.5 µM internal standard and the plasma sample, protein precipitation was commenced. Next, 190 µL of acetonitrile and 50 µL of 0.5 M sulfuric acid buffer were added. The tubes were then shaken at 1400 rpm for 5 min followed by centrifugation at 14,000 rpm for 5 min. Subsequently, 195 µL of the supernatant was transferred to an LC tube and analyzed.
as §8

[7] = test system: human gastric (SNU-638) cancer cells; settings: sulforhodamine B assay, incubation 24 h longer than the 48-h assay; cited from earlier work
A549 lung cancer cells = settings: sulforhodamine B assay, incubation 24 h longer than the 48-h assay; cited from earlier work
[8] = test system: human breast cancer cells (MCF-7); settings: sulforhodamine B assay, incubation 24 h longer than the 48-h assay; cited from earlier work
[9] = test system: human colon (Col2) cancer cells; settings: sulforhodamine B assay, incubation 24 h longer than the 48-h assay; cited from earlier work
[10] = test system: human fibrosarcoma cell line HT1080; settings: sulforhodamine B assay, incubation 24 h longer than the 48-h assay; cited from earlier work
leukemia cells (HL60) = settings: sulforhodamine B assay, incubation 24 h longer than the 48-h assay; cited from earlier work

O=C1Nc2ccccc2/C1=C1/Sc2ccccc2C1=O [KD88, 3-[3′-oxo-benzo[b]thiophene-2′-(Z)-ylidene]-oxindole]
cytotoxic potential (in words) [1]: no cytotoxic potential | cytotoxic potential (in words) [2]: no cytotoxic potential | cytotoxic potential (in words) (U251MG (glioblastoma)): no cytotoxic potential | cytotoxic potential (in words) (U138MG (glioblastoma)): no cytotoxic potential | cytotoxic potential (in words) (A375 (melanoma)): no cytotoxic potential

O=C1Nc2ccccc2/C1=C1/Nc2ccccc2/C1=N\O [I3M, indirubin-3′-monoxime]
Stability −80 °C 91 d ([3]; 2.0 nM): 101.0 ± 9.0% | Stability −80 °C 91 d ([3]; 167 nM): 103.0 ± 3.6% | Stability 4 °C ([4]; 3.0 nM): 113.8 ± 6.6% | Stability AS (autosampler) ([4]; 3.0 nM): 65.0 ± 1.3% | Stability −20 °C ([4]; 3.0 nM): 92.0 ± 1.1% | Stability FT (freeze-thaw) ([4]; 3.0 nM): 100.0 ± 5.7% | Stability −80 °C 91 d ([4]; 3.0 nM): 90.6 ± 4.5% | Stability BT (benchtop) ([4]; 3.0 nM): 66.8 ± 2.7% | Stability 4 °C ([4]; 40 nM): 100.4 ± 1.3% | Stability AS (autosampler) ([4]; 40 nM): 63.6 ± 0.3% | Stability −20 °C ([4]; 40 nM): 93.1 ± 2.5% | Stability FT (freeze-thaw) ([4]; 40 nM): 99.5 ± 3.2% | Stability −80 °C 91 d ([4]; 40 nM): 99.0 ± 2.7% | Stability BT (benchtop) ([4]; 40 nM): 59.4 ± 2.4% | Stability 4 °C ([5]; 3.0 nM): 95.9 ± 8.7% | Stability AS (autosampler) ([5]; 3.0 nM): 68.0 ± 1.5% | Stability −20 °C ([5]; 3.0 nM): 93.8 ± 1.9% | Stability FT (freeze-thaw) ([5]; 3.0 nM): 94.9 ± 4.0% | Stability −80 °C 90 d ([5]; 3.0 nM): 96.2 ± 7.2% | Stability BT (benchtop) ([5]; 3.0 nM): 102.2 ± 1.8% | Stability 4 °C ([5]; 250 nM): 94.6 ± 2.2% | Stability AS (autosampler) ([5]; 250 nM): 58.5 ± 1.3% | Stability −20 °C ([5]; 250 nM): 96.5 ± 1.6% | Stability FT (freeze-thaw) ([5]; 250 nM): 99.7 ± 1.6% | Stability −80 °C 90 d ([5]; 250 nM): 100.6 ± 3.0% | Stability BT (benchtop) ([5]; 250 nM): 96.3 ± 7.3% | Stability 4 °C ([6]; 2.0 nM): 89.7 ± 1.5% | Stability AS (autosampler) ([6]; 2.0 nM): 124.3 ± 9.5% | Stability −20 °C ([6]; 2.0 nM): 95.2 ± 3.7% | Stability FT (freeze-thaw) ([6]; 2.0 nM): 104.1 ± 5.5% | Stability BT (benchtop) ([6]; 2.0 nM): 100.1 ± 9.0% | Stability 4 °C ([6]; 167 nM): 91.5 ± 3.3% | Stability AS (autosampler) ([6]; 167 nM): 112.0 ± 6.8% | Stability −20 °C ([6]; 167 nM): 93.7 ± 7.7% | Stability FT (freeze-thaw) ([6]; 167 nM): 99.7 ± 7.4% | Stability BT (benchtop) ([6]; 167 nM): 98.6 ± 4.3%

O=C1Nc2ccccc2/C1=C1/Nc2ccccc2C1=O [indirubin]
pIC50 [7]: < 4.00 | pIC50 (A549 lung cancer cells): 4.51 | pIC50 [8]: < 4.00 | pIC50 [9]: < 4.00 | pIC50 [10]: 4.38 | pIC50 (leukemia cells (HL60)): < 4.00
